Measurements: article PMC11089505, “Structural Elucidation and Antiviral Activity of Covalent Cathepsin L Inhibitors” (Journal of Medicinal Chemistry, 2024)
Values joined by “and” are separate entries in the source; they are usually repeats but may differ in a detail not shown here. Equal values may be shown once. Read-outs that look alike come from different tables or passages of the source.

Legend:
[1] = in DMSO; compound supply and quality parameters, supplier named in Table S4; cited from earlier work
[2] = test system: SARS-CoV-2-GFP in Vero E6 cells; assay: microbe, parasite or virus in culture; assay type: cell-based
[3] = target: T1, bovine serum albumin (Bos taurus, UniProt P02769); assay type: binding
T1 construct: purchased Merck, Germany

[4] = test system: CatL; conditions: Table S1, SI reference list; cited from earlier work
[5] = test system: Vero cells; parameters: method as in PMID 32541865; conditions: another assay using Vero cells; cited from earlier work
[6] = Cell viability assay (CellTiter-Blue); conditions: chlorocebus sabaeus
[7] = target: SARS-CoV-2 Mpro (Severe acute respiratory syndrome coronavirus 2, UniProt P0DTD1); assay type: binding
[8] = target: T2, CatL (Homo sapiens, UniProt P07711, T223A); assay: CatL inhibition assay (Ki), substrate Z-RR-AMC; assay type: biochemical
T2 construct: made in house; host or cells: Komagataella pastoris strain GS115
In short: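 Buffer: 50 mM sodium acetate pH 4.0, 50 mM NaCl, 0.1% PEG 6000, 5 mM DTT; epoxide inhibitors separately in 50 mM sodium phosphate pH 6.0 with same additives.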

[9] = test system: SARS-CoV-2 wild-type SA-WA1/2020; parameters: method as in PMID 32541865; conditions: Vero cells, read-out: half-maximal effective concentration; cited from earlier work
[10] = target: T2, CatL; assay: NanoDSF, thermal stability of CatL; assay type: binding

T2 sequence (P07711 114-333 T223A): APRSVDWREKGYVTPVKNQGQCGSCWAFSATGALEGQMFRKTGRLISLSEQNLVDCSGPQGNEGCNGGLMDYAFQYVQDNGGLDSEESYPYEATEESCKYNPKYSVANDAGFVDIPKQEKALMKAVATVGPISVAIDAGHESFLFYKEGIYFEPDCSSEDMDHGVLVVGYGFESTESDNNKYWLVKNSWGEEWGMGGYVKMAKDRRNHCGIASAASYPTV
T1 sequence (P02769 25-607): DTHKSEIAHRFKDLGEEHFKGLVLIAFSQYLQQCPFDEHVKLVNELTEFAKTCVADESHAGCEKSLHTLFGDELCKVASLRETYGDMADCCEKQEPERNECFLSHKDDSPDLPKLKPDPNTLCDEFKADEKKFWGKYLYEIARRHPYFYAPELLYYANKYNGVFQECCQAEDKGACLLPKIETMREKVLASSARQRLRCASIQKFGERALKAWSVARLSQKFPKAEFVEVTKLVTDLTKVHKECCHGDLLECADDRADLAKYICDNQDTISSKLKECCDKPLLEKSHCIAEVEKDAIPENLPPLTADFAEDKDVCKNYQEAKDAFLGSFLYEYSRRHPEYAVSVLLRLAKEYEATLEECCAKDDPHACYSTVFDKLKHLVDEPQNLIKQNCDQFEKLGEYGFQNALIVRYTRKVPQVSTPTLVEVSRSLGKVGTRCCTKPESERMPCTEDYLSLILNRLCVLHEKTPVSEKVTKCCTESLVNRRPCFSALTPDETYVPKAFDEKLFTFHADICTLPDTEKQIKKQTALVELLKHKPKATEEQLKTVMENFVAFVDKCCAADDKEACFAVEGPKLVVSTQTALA

CCCC(NC(=O)C(CC(C)C)NC(=O)OCc1ccccc1)C(=O)C(=O)NCc1ccccn1 (stereo not shown) [CI-XII, Benzyl N-[1-[[1.2-dioxo-1-(pyridin-2-ylmethylamino)hexan-3-yl]amino]-4-methyl-1-oxopentan-2-yl]carbamate]
Solvent (max. solubility) [1]: 16 mg/mL | EC50 ([2]; Severe acute respiratory syndrome coronavirus 2, Vero C1008, 24 h, read-out: EC50 (24 h)): 6.4 nM | EC50 ([2]; Severe acute respiratory syndrome coronavirus 2, Vero C1008, 24 h, read-out: EC50 (after 24 h)): 6.37 nM | EC50 ([2]; Severe acute respiratory syndrome coronavirus 2, Vero C1008, 48 h, read-out: EC50 (after 48 h)): 146 nM | EC50 ([2]; read-out: EC50 (24 h)): < 10 nM | Tm of bovine serum albumin in the presence of compound [3]: 333.4 ± 0.8 K | IC50 [4]: 1.6 nM | CC50 [5]: > 50000 nM | CC50 at 48 h [6]: > 10000 nM | 2:1, Tm average (Mpro) ([7]; 2:1 compound to protein): 66.7 °C | ΔTm (for Mpro), 2:1 compound to protein mixing ratio ([7]; pH 7.5): 11,7 ± 1,7 °C and 11.7 °C | Residual activity (Vi/V0) ([8]; CI-XII 0.055 uM): 0.9785 and 0.9376 | Residual activity (Vi/V0) ([8]; CI-XII 0.091 uM): 0.9548 and 0.9431 | Residual activity (Vi/V0) ([8]; CI-XII 0.152 uM): 0.9354 and 0.8807 | Residual activity (Vi/V0) ([8]; CI-XII 0.254 uM): 0.873 and 0.9321 | Residual activity (Vi/V0) ([8]; CI-XII 0.423 uM): 0.8656 and 0.8369 | Residual activity (Vi/V0) ([8]; CI-XII 0.705 uM): 0.7709 and 0.7656 | Residual activity (Vi/V0) ([8]; CI-XII 1.176 uM): 0.6641 and 0.6442 | Residual activity (Vi/V0) ([8]; CI-XII 1.960 uM): 0.5112 and 0.4696 | Residual activity (Vi/V0) ([8]; CI-XII 3.266 uM): 0.3345 and 0.322 | Residual activity (Vi/V0) ([8]; CI-XII 5.443 uM): 0.1956 and 0.1842 | Residual activity (Vi/V0) ([8]; CI-XII 9.072 uM): 0.1094 and 0.09936 | Residual activity (Vi/V0) ([8]; CI-XII 15.120 uM): 0.06322 and 0.05321 | Residual activity (Vi/V0) ([8]; CI-XII 25.200 uM): 0.03696 and 0.03366 | Residual activity (Vi/V0) ([8]; CI-XII 42.000 uM): 0.01939 and 0.02113 | Residual activity (Vi/V0) ([8]; CI-XII 70.000 uM): 0.01108 and 0.01542 | fold lower Ki than 13b ([8]; CatL Ki relative to 13b): ~500 fold | Ki ([8]; Ki, CatL, Z-RR-AMC, pH 4.0, 37 °C): 0.64 nM | remaining activity at 0.055 µM ([8]; read-out: Residual activity (Vi/V0), CI-XII 0.055 uM): 101% | remaining activity at 0.091 µM ([8]; read-out: Residual activity (Vi/V0), CI-XII 0.091 uM): 100% | remaining activity at 0.152 µM ([8]; read-out: Residual activity (Vi/V0), CI-XII 0.152 uM): 102% | remaining activity at 0.254 µM ([8]; read-out: Residual activity (Vi/V0), CI-XII 0.254 uM): 94.7% | remaining activity at 0.423 µM ([8]; read-out: Residual activity (Vi/V0), CI-XII 0.423 uM): 84.5% | remaining activity at 0.705 µM ([8]; read-out: Residual activity (Vi/V0), CI-XII 0.705 uM): 75% | remaining activity at 1.176 µM ([8]; read-out: Residual activity (Vi/V0), CI-XII 1.176 uM): 65.7% | remaining activity at 1.96 µM ([8]; read-out: Residual activity (Vi/V0), CI-XII 1.960 uM): 52.2% | remaining activity at 3.266 µM ([8]; read-out: Residual activity (Vi/V0), CI-XII 3.266 uM): 34.9% | remaining activity at 5.443 µM ([8]; read-out: Residual activity (Vi/V0), CI-XII 5.443 uM): 17.4% | remaining activity at 9.072 µM ([8]; read-out: Residual activity (Vi/V0), CI-XII 9.072 uM): 9.65% | remaining activity at 15.12 µM ([8]; read-out: Residual activity (Vi/V0), CI-XII 15.120 uM): 5.77% | remaining activity at 25.2 µM ([8]; read-out: Residual activity (Vi/V0), CI-XII 25.200 uM): 3.2% | remaining activity at 42 µM ([8]; read-out: Residual activity (Vi/V0), CI-XII 42.000 uM): 1.92% | remaining activity at 70 µM ([8]; read-out: Residual activity (Vi/V0), CI-XII 70.000 uM): 1.07% | EC50 [9]: < 1000 nM | 2:1, Tm average (CatL) [10]: 81.6 °C | 20:1, Tm average (CatL) [10]: 81.3 °C | ΔTm [K] for CatL, 2:1 ratio [10]: 18.5 ± 0.4 K | ΔTm (for CatL), 2:1 compound to protein mixing ratio ([10]; pH 5): 18,5 ± 0,4 °C and 18.5 °C | ΔTm (for CatL), 20:1 compound to protein mixing ratio ([10]; pH 5): 18,2 ± 0,2 °C and 18.2 °C
